Results reported in BindingDB's records for patent US9718819 (Merck Sharp & Dohme, 2017).
pIC50: −log10 of the molar value.

Target: Gag-Pol polyprotein (Human immunodeficiency virus type 1 group M subtype B (isolate HXB2), UniProt P04585)
Assay: HIV-1 Reverse Transcriptase Inhibitory Assay
Details: pH 7.8; 25 °C
From the text: The heterodimeric nucleic acid substrate used in the HIV-1 RT polymerase reactions was generated by annealing the DNA primer, biotinylated pD500 (Sigma Aldrich, USA, 5′-biotin-ttg aaa tga ctg cgg tac ggc-3′), SEQ ID NO. 1 to the nucleotide RNA template t500 (derived from hepatitis C virus [HCV] sequence, IBA, Germany, 5′-GAGGUUCAGGUGGUUUCCACCGCAACACAAUCCUUCCUGGCGACCUGCGUCAACGGCGUGUGUUGGACCGUUUACCAUGGUGCUGGCUCAAAGACCUUAGCCGGCCCAAAGGGGCCAAUCACCCAGAUGUACACUAAUGUGGACCAGGACCUCGUCGGCUGGCAGGCGCCCCCCGGGGCGCGUUCCUUGACACCAUGCACCUGUGGCAGCUCAGACCUUUACUUGGUCACGAGACAUGCUGACGUCAUUCCGGUGCGCCGGCGGGGCGACAGUAGGGGGAGCCUGCUCUCCCCCAGGCCUGUCUCCUACUUGAAGGGCUCUUCGGGUGGUCCACUGCUCUGCCCUUCGGGGCACGCUGUGGGCAUCUUCCGGGCUGCCGUAUGCACCCGGGGGGUUGCGAAGGCGGUGGACUUUGUGCCCGUAGAGUCCAUGGAAACUACUAUGCGGUCUCCGGUCUUCACGGACAACUCAUCCCCCCCGGCCGUACCGCAGUCAUUUCAA-3′), SEQ ID NO 2). […] The mixture was then preincubated on an orbital shaker for 30 min at room temperature in microtiter plates (Costar 3365, Corning, USA). A polymerization reaction was initiated by the addition of RNA template/pD500 DNA primer hybrid (16.6 nM final of RNA/DNA hybrid) and dNTPs (2 μM dATP, dGTP, dCTP and 66.6 nM Ru-dUTP (Meso Scale Discovery, USA)). Plate was sealed and incubated for 5-10 min at room temperature on an orbital shaker. Plate was then incubated for 90 min at 37° C. and reactions quenched with 60 μl quenching buffer (50 mM EDTA, 0.7% BSA, 0.7% Tween-20, 0.017% sodium azide in PBS). The resulting solution was incubated at room temperature for an additional 5 min and then 50 μL was transferred to pre-blocked Avidin plates (L15AA, Meso Scale Discovery). Each well of Avidin plate was blocked for 1 h at room temperature with 100 μL 5% BSA in PBS. Blocking solution was removed by tapping vigorously on filter paper to remove all excess liquid. Reaction on pre-blocked avidin plate proceeded for 60 min at room temperature and then contents removed by tapping vigorously on filter paper to remove all excess liquid. After washing plate 3 times with 150 μL 1×PBS and blotting dry between cycles, 150 μL 1× Read Buffer T (4× Read Buffer T, Meso Scale Discovery) was added and incubated for 5 min at room temperature before counting on a Sector Imager […] (Meso Scale Discovery). Titration curves and IC50 values were calculated using a four parameter logisitc fit according to standard procedures. Briefly, % Inhibition=100×((sample raw value)−(mean value of the low control or 0% inhibition))/((mean value of wells representing 100% inhbition)−(mean value of 0% inhbition)). […]

| SMILES | pIC50 |
| --- | --- |
| N#Cc1cc(Cl)cc(Oc2c(C(F)(F)F)ncn(Cc3cc(-c4cn[nH]c4)n[nH]c3=O)c2=O)c1 [US9718819, 118] | 8.15 |
| COc1cc(-c2cc(Cn3cnc(C(F)(F)F)c(Oc4cc(Cl)cc(C#N)c4)c3=O)n[nH]c2=O)ccn1 [US9718819, 79] | 8.22 |
| Cn1[nH]c(=O)c(Cn2cnc(C(F)(F)F)c(Oc3cc(Cl)cc(C#N)c3)c2=O)cc1=O [US9718819, 127] | 6.36 |
| Cc1cncc(-c2cc(Cn3cnc(C(F)(F)F)c(Oc4cc(Cl)cc(C#N)c4)c3=O)n[nH]c2=O)c1 [US9718819, 80] | 7.85 |
